Data on one compound can be found in patent US20140235856A1, “FIBROBLASTS CELLULAR MODEL FOR ASSESSING EFFICACY OF CANCER TREATMENTS BY SHH/PTCH PATHWAY ANTAGONISTS” (CNRS, priority 2011, published 2014).

The experiment deals with SHH/PTCH pathway (GLI1 mRNA) in NBCCS 6 E6/E7 fibroblasts. Kind of experiment: Comparative Q-PCR analysis of GLI1 mRNA accumulation after treatment of fibroblast cell lines with purmorphamine. It counts as cell-based, human. To be noted: NBCCS 6 E6/E7 fibroblasts compared with CTRL E6/E7 fibroblasts, same experimental conditions; 0.1% DMSO; Q-PCR (FIG. 4). The protocol:
Human primary fibroblasts (named CTRL or NBCCS) were isolated from a healthy non photo-exposed skin biopsy of either a control patient or a patient with caracteristic NBCCS after informed consent (Otto et al., 1999; Valin et al., 2009)
The CTRL and NBCCS6 cell lines were then immortalized by retroviral transduction with pLE6/E7SN resulting in CTRL and NBCCS-E6-E7 (FIG. 1) (Halbert et al., 1991, 1992). Cells were grown at 37° C. in a humified atmosphere containing 5% CO2, DMEM medium, 50 U/ml penicillin, 50 μg/ml streptomycin, 0.125 μg/ml amphotericin B, 2 mM L-Glutamine, 1 mM Sodium pyruvate, 1× non essential amino acids.
Total RNA was extracted with RNeasy® Mini kit according to manufacturer's instructions (Qiagen, Hilden, Germany). Reverse transcription was performed on 1 μg total RNA with Superscript II Reverse Transcriptase (Roche Applied Science, Basel, Switzerland) by using random primers. Q-PCR was carried out using the 7900 HT Fast Real-Time PCR System (Applied Biosystems, Foster City, Calif., USA).
To evaluate small Molecules Modulators of the SHH/PTCH pathway, the Purmorphamine (SMO agonist) was used. Purmorphamine (SMO agonist) was diluted in DMSO at stock concentrations of 50 mM and 10 mM, respectively. To avoid side effects and toxicity, the final concentration of DMSO was fixed to 0.1% DMSO.

With `c1ccc2c(Oc3nc(Nc4ccc(N5CCOCC5)cc4)c4ncn(C5CCCCC5)c4n3)cccc2c1` [Purmorphamine], the “GLI1 mRNA accumulation response, NBCCS 6 E6/E7 versus CTRL cells” value turned out to be 7 × times.
